Tests used:
[1] = system: inflammatory cells in BAL solution of OVA-sensitized mice; assay: Suppressive effect on bronchial inflammatory cell infiltration by inhalation of antigen (BAL cell counts); format: in vivo, BALB/c mice; settings: 40 mg/kg orally for 9 days, BAL 48 hours after challenge, FIG. 4
Protocol: Experiment 7 Suppressive Effect on Bronchial Inflammatory Cell Infiltration by Inhalation of Antigen • 1. Experimental Method • 1) Animals
BALB/c mice bought from Japan SLC, Inc. (Shizuoka) (female, 8-11 weeks old) were used for experiments.
2) Sensitizing and Challenge of Antigen
For immunizing, 0.2 ml of a suspension of 2 μg of ovalbumin (OVA; Grade V, SIGMA) and 2 mg of aluminium hydroxide gel in physiological saline was intraperitoneally injected. After 2 weeks, 0.2 ml of a solution of 2 μg of OVA in physiological saline was intraperitoneally injected for a booster. […]
After calculation of the total cell number by coloring of a part of BAL solution with Türk solution, cells in BAL solution were put on a slide glass with cytospin (SHANDON) for May-Grünwald-Giemsa (MERCK) staining. Under a microscope, 500 cells were classified to a macrophage, an eosinophil, a neutrophil and a lymphocyte and a proportion of each type of the cells was calculated. The number of each type of the cells was calculated by a multiplication of its proportion and the total cell number.

[2] = system: IgM production of mouse spleen lymphocytes; assay: Suppressive effect on antibody production of mouse spleen lymphocytes: IgM; format: cell-based, BALB/c (nu/nu) mice; settings: Lymphocyte, 240 h, LPS + IL-4, 10 days
Protocol: (§1) Experiment 6 Suppressive Effect on Antibody Production of Mouse Spleen Lymphocytes 1. Experimental Method 1) Animals
(§2) BALB/c (nu/nu) mice were bought from Japan SLC, Inc. (Shizuoka) and 7 weeks old-male mice were used.
(§3) RPMI medium (Nissui Pharmaceutical Co., Ltd.) containing 10% fetal bovine serum (HyClone Lab.) inactivated at 56° C. for 30 minutes, penicillin (100 units/ml) and streptomycin (100 μg/ml) (GIBCO) was used for experiments.
(§4) Each of the compounds was dissolved in dimethylsulfoxide (Nakaraitesk) at […] and diluted with the medium to adjust a final concentration to 0.1 μg/ml −10 μg/ml.
4) Mouse Spleen Lymphocytes […]
(§5) In 96-well cultivating plate (Sumitomo Bakelite Company Limited) mouse spleen lymphocytes were inoculated 2×10^5 cells per well. […] After the cultivation for 10 days, the amount of the antibody in a supernatant was quantified by ELISA method.
7) Quantification of the IgG1, IgG2a and IgM Antibodies
In 96-well plate 50 μl of 10 μg/ml Goat Anti-Mouse Ig (IgM+G+A, H+ L) (Southern Biotechnology, Birmingham) was added and the plate was coated at 4° C. overnight. […] After washing three times with PBST, 100 μl of culture supernatant which was diluted with PBS or 100 μl of an antibody standard solution (Mouse IgG1 standard, Mouse IgG2a standard, Mouse IgM standard, BETHYL Laboratories) of a pre-determined concentration was added and incubated for 1 hour. […]

[3] = system: IgE production of mouse spleen lymphocytes (lipopolysaccharide, IL-4); assay: Suppressive effect on antibody production of mouse spleen lymphocytes: IgE; format: cell-based, BALB/c (nu/nu) mice; settings: Lymphocyte, 240 h, LPS + IL-4, 10 days
Protocol: as §1, §2, §3, §4
4) Mouse Spleen Lymphocytes
A spleen of mouse was taken out and put in a cultivating schale which was filled with Hanks' solution. The spleen was crushed and the cells were pushed out from the organ and filtered through a metal mesh (200 mesh). After the collected cell suspension was washed by centrifugation with sterile Hanks' solution (Nissui Pharmaceutical Co., Ltd.), sterile distilled water was added. […]
as §5
6) Quantification of the IgE Antibody
A commercial mouse IgE EIA kit (Yamasa Shoyu Co., Ltd.) was used for the quantification of the IgE. […]

IC50 [2]: 3.5 µg/mL | IC50 [3]: 0.00026 ng/mL
SMILES: Cc1cc(-c2ccc(OCC=C(Cl)Cl)c(F)c2)c(C)cc1-c1ccc(O)cc1 [Compound I-963]
increasing number of eosinophils by the challenge of antigen [1]: significantly suppresses | increasing number of neutrophils by the challenge of antigen [1]: significantly suppresses
